Results as given in patent US8293773B2, “1, 2, 3-triazole derivatives as new cannabinoid-1 receptor antagonists” (National Tsing Hua University, priority 2008, dated 2012).

target: T1, human CB1 receptor (Homo sapiens, UniProt P21554); test: competitive radioligand binding assay, displacement of [3H]CP55,940, CB1; settings: Table 2; percent inhibition at 10 μM
T1 construct: expressed in transfected cells; membrane-enriched fractions
Protocol: In addition, the affinity of test compounds of this invention toward CB1 and CB2 receptors was determined by competitive radioligand binding assays in vitro. This method differentiates the binding strength between compounds by their abilities in displacing a receptor-specific radioactive ligand. […] The readings of the radioactivity retained allow further analysis of receptor binding, and assist in predictions of the pharmacological activities of the test compounds.
In the assays, CB1 receptors are from human CB1 stably expressed cell lines, and CB2 receptors are from human CB2 stably expressed cell lines. For purification of membrane-enriched fractions, cells were scraped off from the culture dishes in ice-cold buffer A (50 mM Tris, 5 mM MgCl2, 2.5 mM EDTA, pH 7.4, 10% sucrose) with 1 mM PMSF. After sonication, the membrane-enriched fractions were centrifuged for 15 minutes at 2,000×g at 4° C. The supernatant was centrifuged again for 30 minutes at 43,000×g at 4° C. The final pellet was re-suspended in buffer A and stored at −80° C. The protein concentration of the purified membrane was determined by the Bradford method as described by the manual provided by Bio-Rad Laboratories, Inc., Hercules, Calif.
During the receptor binding experiments, 0.2˜8 μg of membrane fractions were incubated with 0.75 nM [^3H]CP55,940 and a test compound in the incubation buffer of 50 mM Tris-HCl, 5 mM MgCl2, 1 mM EDTA, 0.3% BSA, pH 7.4. The non-specific binding was determined by using 1 μM of CP55,940. The mixture was incubated for 1.5 hours at 30° C. in Multiscreen microplates (Millipore, Billerica, Mass.). At the completion of the incubation, the reaction was terminated by Manifold filtration and washed with ice-cold wash buffer (50 mM Tris, pH 7.4, 0.25% BSA) four times. The radioactivity bound to the filters was measured by Topcount (Perkin Elmer Inc.).

T1 sequence (P21554 whole entry): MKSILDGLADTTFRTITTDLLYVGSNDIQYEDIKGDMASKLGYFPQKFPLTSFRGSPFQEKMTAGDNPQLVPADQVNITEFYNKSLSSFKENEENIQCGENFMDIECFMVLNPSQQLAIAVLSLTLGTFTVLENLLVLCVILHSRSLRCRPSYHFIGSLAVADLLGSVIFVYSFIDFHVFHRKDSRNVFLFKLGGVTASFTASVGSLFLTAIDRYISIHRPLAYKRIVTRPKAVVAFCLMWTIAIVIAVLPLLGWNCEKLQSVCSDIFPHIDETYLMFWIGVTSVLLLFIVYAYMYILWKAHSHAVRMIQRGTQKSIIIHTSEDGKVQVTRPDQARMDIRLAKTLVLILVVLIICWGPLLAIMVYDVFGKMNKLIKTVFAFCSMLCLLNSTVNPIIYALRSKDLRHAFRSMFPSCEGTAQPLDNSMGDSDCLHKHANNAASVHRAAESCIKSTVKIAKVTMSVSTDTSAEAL

| SMILES | inhibition at 10 µM |
| --- | --- |
| O=C(Nc1ccc(Cl)cc1)n1nc(-c2ccc(Cl)cc2)c(-c2ccc(Cl)cc2)n1 [Compound 79] | 1.5% |
| O=C(NC1CCCCC1)n1nc(-c2ccc(Cl)cc2)c(-c2ccc(Cl)cc2)n1 [Compound 80] | 29.9% |
| CCCCCCNC(=O)n1nc(-c2ccc(Cl)cc2)c(-c2ccc(Cl)cc2)n1 [Compound 81] | 41.5% |
| CCCCCCCCNC(=O)n1nc(-c2ccc(Cl)cc2)c(-c2ccc(Cl)cc2)n1 [Compound 82] | 26.9% |
| CCCCC(=O)n1nc(-c2ccc(Cl)cc2)c(-c2ccc(Cl)cc2)n1 [Compound 83] | 11.8% |
| CCCCCCCC(=O)n1nc(-c2ccc(Cl)cc2)c(-c2ccc(Cl)cc2)n1 [Compound 84] | 21.2% |
| CCCCCCCCC(=O)n1nc(-c2ccc(Cl)cc2)c(-c2ccc(Cl)cc2)n1 [Compound 85] | 18.3% |
| CCCCCNC(=O)n1nc(-c2ccc(Cl)cc2)c(-c2ccc(Cl)cc2)n1 [Compound 86] | 8.4% |
| CCCCCCCNC(=O)n1nc(-c2ccc(Cl)cc2)c(-c2ccc(Cl)cc2)n1 [Compound 87] | 12.9% |
| CCCCCNC(=O)n1nc(-c2ccc(Cl)cc2)c(-c2ccc(Cl)cc2Cl)n1 [Compound 90] | 14.4% |
| O=C(NC1CCCCC1)n1nc(-c2ccc(Cl)cc2)c(-c2ccc(Cl)cc2Cl)n1 [Compound 93] | 30.5% |
| CCCCCCNC(=O)n1nc(-c2ccc(Cl)cc2)c(-c2ccc(Cl)cc2Cl)n1 [Compound 94] | 10.9% |
| CCCCCCCNC(=O)n1nc(-c2ccc(Cl)cc2)c(-c2ccc(Cl)cc2Cl)n1 [Compound 95] | 14.9% |
| CCCCCCCCNC(=O)n1nc(-c2ccc(Cl)cc2)c(-c2ccc(Cl)cc2Cl)n1 [Compound 96] | 17.7% |
| O=C(NCCc1ccccc1)n1nc(-c2ccc(Cl)cc2)c(-c2ccc(Cl)cc2Cl)n1 [Compound 103] | 23.4% |
| CCCCOC(=O)CNC(=O)n1nc(-c2ccc(Cl)cc2)c(-c2ccc(Cl)cc2Cl)n1 [Compound 104] | 11.8% |
| O=C(NCc1ccccc1)n1nc(-c2ccc(Cl)cc2)c(-c2ccc(Cl)cc2Cl)n1 [Compound 105] | 18.6% |
| O=C(NC12CC3CC(CC(C3)C1)C2)n1nc(-c2ccccc2)c(-c2ccccc2)n1 [Compound 106] | 4.8% |
| O=C(NC12CC3CC(CC(C3)C1)C2)n1nc(-c2ccc(Cl)cc2)c(-c2ccc(Cl)cc2)n1 [Compound 107] | 19.7% |
| O=C(NC12CC3CC(CC(C3)C1)C2)n1nc(-c2ccc(Cl)cc2)c(-c2ccc(Cl)cc2Cl)n1 [Compound 108] | 34.5% |
| CCCCOC(=O)CNC(=O)n1nc(-c2ccc(Cl)cc2)c(-c2ccc(Cl)cc2)n1 [Compound 109] | 58.1% |
| CCOC(=O)Cn1nc(-c2ccccc2)c(-c2ccccc2)n1 [Compound 110] | 59.1% |
| CCCCOC(=O)Cn1nc(-c2ccc(Cl)cc2)c(-c2ccc(Cl)cc2)n1 [Compound 112] | 82.1% |
| O=C(NC12CC3CC(CC(C3)C1)C2)n1nc(-c2ccc(Cl)cc2Cl)c(-c2ccc(Cl)cc2Cl)n1 [Compound 113] | 78.9% |
| CCCCCCOC(=O)Cn1nc(-c2ccc(Cl)cc2)c(-c2ccc(Cl)cc2Cl)n1 [Compound 114] | 39.1% |
| O=C(Cn1nc(-c2ccccc2)c(-c2ccccc2)n1)NC1CCCCC1 [Compound 123] | 11.6% |
| O=C(Cn1nc(-c2ccc(Cl)cc2Cl)c(-c2ccc(Cl)cc2Cl)n1)N[C@H]1c2ccccc2C[C@H]1OC(=O)Cn1nc(-c2ccc(Cl)cc2Cl)c(-c2ccc(Cl)cc2Cl)n1 [Compound 128] | 13.6% |
| O=C(Cn1nc(-c2ccc(Cl)cc2Cl)c(-c2ccc(Cl)cc2Cl)n1)N[C@H](CO)Cc1ccccc1 [Compound 132] | 88.2% |

Next, values leading:

| inhibition at 10 µM | SMILES |
| --- | --- |
| 3.3% | CCCCCCNC(=O)n1nc(-c2ccc(Cl)cc2Cl)c(-c2ccc(Cl)cc2Cl)n1 [Compound 75] |
| 12.7% | Cc1cc(C)cc(NC(=O)n2nc(-c3ccc(Cl)cc3Cl)c(-c3ccc(Cl)cc3Cl)n2)c1 [Compound 76] |
| 27.5% | CCCCCCCCNC(=O)n1nc(-c2ccc(Cl)cc2Cl)c(-c2ccc(Cl)cc2Cl)n1 [Compound 77] |
| 6.4% | COc1ccc(NC(=O)n2nc(-c3ccc(Cl)cc3Cl)c(-c3ccc(Cl)cc3Cl)n2)cc1 [Compound 78] |
| 7% | CCCCCNC(=O)n1nc(-c2ccc(Cl)cc2Cl)c(-c2ccc(Cl)cc2Cl)n1 [Compound 88] |
| 12.9% | CCCCCCCNC(=O)n1nc(-c2ccc(Cl)cc2Cl)c(-c2ccc(Cl)cc2Cl)n1 [Compound 89] |
| 11.2% | O=C(NCCc1ccccc1)n1nc(-c2ccc(Cl)cc2Cl)c(-c2ccc(Cl)cc2Cl)n1 [Compound 91] |
| 22.3% | CCCCOC(=O)CNC(=O)n1nc(-c2ccc(Cl)cc2Cl)c(-c2ccc(Cl)cc2Cl)n1 [Compound 92] |
| 72.7% | CCCCCCOC(=O)Cn1nc(-c2ccc(Cl)cc2Cl)c(-c2ccc(Cl)cc2Cl)n1 [Compound 115] |
| 76.5% | CCCCCOC(=O)Cn1nc(-c2ccc(Cl)cc2Cl)c(-c2ccc(Cl)cc2Cl)n1 [Compound 116] |
| 47.5% | CCCCCCCOC(=O)Cn1nc(-c2ccc(Cl)cc2Cl)c(-c2ccc(Cl)cc2Cl)n1 [Compound 117] |
| 67.4% | CCCCOC(=O)Cn1nc(-c2ccc(Cl)cc2)c(-c2ccc(Cl)cc2Cl)n1 [Compound 118] |
| 74.2% | O=C(Cn1nc(-c2ccc(Cl)cc2Cl)c(-c2ccc(Cl)cc2Cl)n1)NC1CCCCC1 [Compound 119] |
| 70.3% | O=C(Cn1nc(-c2ccc(Cl)cc2Cl)c(-c2ccc(Cl)cc2Cl)n1)NN1CCCCC1 [Compound 121] |
| 14.3% | O=C(Cn1nc(-c2ccc(Cl)cc2Cl)c(-c2ccc(Cl)cc2Cl)n1)Oc1ccccc1 [Compound 124] |
| 102% | C#CC1(NC(=O)Cn2nc(-c3ccc(Cl)cc3Cl)c(-c3ccc(Cl)cc3Cl)n2)CCCCC1 [Compound 126] |
| 89.4% | O=C(Cn1nc(-c2ccc(Cl)cc2Cl)c(-c2ccc(Cl)cc2Cl)n1)N[C@H]1c2ccccc2C[C@H]1O [Compound 127] |
| 76.5% | O=C(Cn1nc(-c2ccc(Cl)cc2)c(-c2ccc(Cl)cc2Cl)n1)N1CCCCC1 [Compound 129] |
| 48.6% | O=C(Cn1nc(-c2ccc(Cl)cc2)c(-c2ccc(Cl)cc2)n1)N1CCCCC1 [Compound 130] |
| 84.2% | O=C(Cn1nc(-c2ccc(Cl)cc2Cl)c(-c2ccc(Cl)cc2Cl)n1)N1CCOCC1 [Compound 131] |
| 75.7% | C[C@H](NC(=O)Cn1nc(-c2ccc(Cl)cc2Cl)c(-c2ccc(Cl)cc2Cl)n1)C(O)(c1ccccc1)c1ccccc1 [Compound 133] |
| 95.9% | COC[C@H](NC(=O)Cn1nc(-c2ccc(Cl)cc2Cl)c(-c2ccc(Cl)cc2Cl)n1)[C@@H](O)c1ccccc1 [Compound 134] |
| 60.1% | O=C(Cn1nc(-c2ccc(Cl)cc2Cl)c(-c2ccc(Cl)cc2Cl)n1)N[C@@H](CO)[C@H](O)c1ccc([N+](=O)[O-])cc1 [Compound 135] |
| 66.3% | CSc1ccc([C@@H](O)[C@@H](CO)NC(=O)Cn2nc(-c3ccc(Cl)cc3Cl)c(-c3ccc(Cl)cc3Cl)n2)cc1 [Compound 136] |
| 59.3% | O=C(Cn1nc(-c2ccc(Cl)cc2Cl)c(-c2ccc(Cl)cc2Cl)n1)N[C@@H](CO)[C@H](O)c1ccccc1 [Compound 137] |

same assay, conditions: Table 2; percent inhibition at 10 μM; 10 µM

| SMILES | CB1 Inhibition (%) (10 μM) |
| --- | --- |
| O=C(NC1CCCCC1)n1nc(-c2ccc(Cl)cc2)c(-c2ccc(Cl)cc2)n1 [Compound 100] | 19.90% |
| CCCCCCCCNC(=O)n1nc(-c2ccc(Cl)cc2)c(-c2ccc(Cl)cc2)n1 [Compound 102] | 15.70% |

Other lines, results leading:

| CB1 Inhibition (%) (10 μM) | SMILES |
| --- | --- |
| 50.80% | O=C(NC1CCCCC1)n1nc(-c2ccc(Cl)cc2Cl)c(-c2ccc(Cl)cc2Cl)n1 [Compound 74] |
| 29.20% | O=C(NC1CCCCC1)n1nc(-c2ccc(Cl)cc2Cl)c(-c2ccc(Cl)cc2Cl)n1 [Compound 97] |
| 19.40% | CCCCCCCCNC(=O)n1nc(-c2ccc(Cl)cc2Cl)c(-c2ccc(Cl)cc2Cl)n1 [Compound 98] |
| 6.60% | CCCCCCNC(=O)n1nc(-c2ccc(Cl)cc2Cl)c(-c2ccc(Cl)cc2Cl)n1 [Compound 99] |

same assay, conditions: displacement of specific [3H]-CP55940 binding in HEK 293 cells stably transfected with human CB1 receptor

| SMILES | IC50 |
| --- | --- |
| CCCCOC(=O)Cn1nc(-c2ccc(Cl)cc2)c(-c2ccc(Cl)cc2)n1 [Compound 112] | 2810 ± 301 nM |
| O=C(NC12CC3CC(CC(C3)C1)C2)n1nc(-c2ccc(Cl)cc2Cl)c(-c2ccc(Cl)cc2Cl)n1 [Compound 113] | 4500 ± 871 nM |
| O=C(Cn1nc(-c2ccc(Cl)cc2Cl)c(-c2ccc(Cl)cc2Cl)n1)N[C@H](CO)Cc1ccccc1 [Compound 132] | 295 ± 112 nM |
| COC[C@H](NC(=O)Cn1nc(-c2ccc(Cl)cc2)c(-c2ccc(Cl)cc2Cl)n1)[C@@H](O)c1ccccc1 [Compound 140] | 1050 ± 256 nM |

Next, values leading:

| IC50 | SMILES |
| --- | --- |
| 4460 ± 698 nM | CCCCCCOC(=O)Cn1nc(-c2ccc(Cl)cc2Cl)c(-c2ccc(Cl)cc2Cl)n1 [Compound 115] |
| 2800 ± 544 nM | CCCCCOC(=O)Cn1nc(-c2ccc(Cl)cc2Cl)c(-c2ccc(Cl)cc2Cl)n1 [Compound 116] |
| 86.8 ± 1 nM | C#CC1(NC(=O)Cn2nc(-c3ccc(Cl)cc3Cl)c(-c3ccc(Cl)cc3Cl)n2)CCCCC1 [Compound 126] |
| 1240 ± 697 nM | O=C(Cn1nc(-c2ccc(Cl)cc2Cl)c(-c2ccc(Cl)cc2Cl)n1)N[C@H]1c2ccccc2C[C@H]1O [Compound 127] |
| 587 ± 139 nM | O=C(Cn1nc(-c2ccc(Cl)cc2)c(-c2ccc(Cl)cc2Cl)n1)N1CCCCC1 [Compound 129] |
| 71.9 ± 16.5 nM | O=C(Cn1nc(-c2ccc(Cl)cc2Cl)c(-c2ccc(Cl)cc2Cl)n1)N1CCOCC1 [Compound 131] |
| 760 ± 273 nM | C[C@H](NC(=O)Cn1nc(-c2ccc(Cl)cc2Cl)c(-c2ccc(Cl)cc2Cl)n1)C(O)(c1ccccc1)c1ccccc1 [Compound 133] |
| 806 ± 346 nM | COC[C@H](NC(=O)Cn1nc(-c2ccc(Cl)cc2Cl)c(-c2ccc(Cl)cc2Cl)n1)[C@@H](O)c1ccccc1 [Compound 134] |
| 1700 ± 425 nM | O=C(Cn1nc(-c2ccc(Cl)cc2)c(-c2ccc(Cl)cc2Cl)n1)NC1CCCCC1 [Compound 138] |
